Reference: ChEMBL document CHEMBL3745652, “Synthesis and evaluation of pretomanid (PA-824) oxazolidinone hybrids” (Bioorg Med Chem Lett, 2016)
Values after ≈ are worked out from the molar mass of the structure shown. Active and inactive are the calls of the source. No cut-off for these calls is given here.

Key:
[1] = tested on: Vero; test: Cytotoxicity against African green monkey Vero cells by cell titer glo assay; assay type: cell-based; conditions: Chlorocebus sabaeus
[2] = Half life in mouse liver microsomes; assay type: ADME; conditions: microsomes
[3] = Apparent permeability from apical to basolateral side in human Caco2 cells; assay type: ADME, cell-based; conditions: caco-2
[4] = Apparent permeability from basolateral to apical side in human Caco2 cells; assay type: ADME, cell-based; conditions: caco-2
[5] = Plasma protein binding in human; assay type: ADME, cell-free
[6] = tested on: Mus musculus; test: Toxicity in C57BL/6 mouse at 300 mg/kg, po after 3 days; assay type: organism-based; conditions: in vivo, 72 h
[7] = tested on: Mycobacterium tuberculosis; test: Antimicrobial activity against Mycobacterium tuberculosis H37Rv infected in C57BL/6 mouse assessed as reduction in bacterial load at 100 mg/kg, po after 28 days; assay type: functional, organism-based
[8] = AUC(infinity) in C57BL/6 mouse at 10 mg/kg, iv; assay type: ADME, organism-based; set-up: dose 10 mg/kg, time infinity, route intravenous; conditions: in vivo
[9] = Half life in C57BL/6 mouse at 10 mg/kg, iv; assay type: ADME, organism-based; conditions: in vivo
[10] = Clearance in C57BL/6 mouse at 10 mg/kg, iv; assay type: ADME, organism-based; conditions: in vivo
[11] = Volume of distribution at steady state in C57BL/6 mouse at 10 mg/kg, iv; assay type: ADME, organism-based; conditions: in vivo, read-out: Vdss
[12] = tested on: Bacillus anthracis; test: Antimicrobial activity against Bacillus anthracis; assay type: functional, organism-based
[13] = tested on: Bacillus subtilis; test: Antimicrobial activity against Bacillus subtilis; assay type: functional, organism-based
[14] = tested on: Enterococcus faecalis; test: Antimicrobial activity against Enterococcus faecalis; assay type: functional, organism-based
[15] = tested on: Staphylococcus aureus; test: Antimicrobial activity against Staphylococcus aureus; assay type: functional, organism-based
[16] = tested on: Streptococcus pyogenes; test: Antimicrobial activity against Streptococcus pyogenes; assay type: functional, organism-based
[17] = tested on: Streptococcus pneumoniae; test: Antimicrobial activity against Streptococcus pneumoniae; assay type: functional, organism-based
[18] = tested on: Acinetobacter baumannii; test: Antimicrobial activity against Acinetobacter baumannii; assay type: functional, organism-based
[19] = tested on: Escherichia coli; test: Antimicrobial activity against Escherichia coli; assay type: functional, organism-based
[20] = tested on: Klebsiella pneumoniae; test: Antimicrobial activity against Klebsiella pneumoniae; assay type: functional, organism-based
[21] = tested on: Mycobacterium tuberculosis; test: Antimicrobial activity against Mycobacterium tuberculosis H37Rv assessed as growth inhibition after 7 days by microbroth dilution method; assay type: functional; conditions: 168 h

SMILES | IC50 [1] | t1/2 [2] | Papp [3] | Papp [4] | PPB [5] | Activity [6] | Activity [7] | AUC(0-inf) [8] | half-life [9] | clearance [10] | Vd [11] | Activity [12] | Activity [13] | Activity [14] | Activity [15] | Activity [16] | Activity [17] | Activity [18] | Activity [19] | Activity [20] | other results
O=C1COCCN1c1ccc(CO[C@@H]2COc3nc([N+](=O)[O-])cn3C2)cc1F | > 100 µg/mL | 792 min | 50.57 ×10⁻⁶ cm/s | 31.67 ×10⁻⁶ cm/s | 67.8% | Non-toxic | inactive | 5180 ng·h/mL | 16.8 min | 32.3 mL/min/kg | 0.63 L/kg | inactive | inactive | inactive | inactive | inactive | inactive | inactive | inactive | inactive | MIC [21]: 0.78 µg/mL (≈ 1.99 µM)
O=C1COCCN1c1ccc(CO[C@@H]2COc3nc([N+](=O)[O-])cn3C2)cc1 | > 100 µg/mL | 1100 min | 40.08 ×10⁻⁶ cm/s | 30.56 ×10⁻⁶ cm/s | 50.4% | Non-toxic | inactive | 7410 ng·h/mL | 28.8 min | 22.5 mL/min/kg | 0.79 L/kg | inactive | inactive | inactive | inactive | inactive | inactive | inactive | inactive | inactive | MIC [21]: 0.78 µg/mL (≈ 2.08 µM)
